The subject of test [1] is CXCR4 surface expression in B-CLL cells. Briefly: CXCR4 surface expression in B-CLL cells of CLL patients after administration. The test is classed as in vivo, human. To be noted: CLL patients with 17p deletion, blood 4, 24, 48 hours after day 3 dose. As for the experimental part: Drug was given for 3 days. Blood was drawn predose, and then 4, 24, and 48 hours after the day 3 dose.

Test [2] relates to p-Btk(Y223) in CD20+ B cells. As to the kind of experiment: Phosphoflow cytometry of p-Btk(Y223) in CD20+ B cell gate of healthy PBMCs. The test is classed as cell-based. To be noted: 2 hours incubation, anti-IgM or anti-IgM+SDF-1 for 5 minutes, low nM concentrations, FIG. 1. The procedure: (§1) Cells were then analyzed by phosphoflow cytometry and p-Btk(Y223) was measured in the CD20+ B cell gate and the CD14^+ monocyte gate separately. In B cells, BTK phosphorylation in anti-IgM stimulated B cells is increased with the addition of SDF-1 (CXCL-12) in the “No drug” condition. […] In monocytes, BTK phosphorylation is only observed when SDF-1 is present.

Test [3] relates to p-Btk(Y223) in CD14+ monocytes. As to the kind of experiment: Phosphoflow cytometry of p-Btk(Y223) in CD14+ monocyte gate of healthy PBMCs. The test is classed as cell-based. To be noted: SDF-1 stimulation, FIG. 2. The procedure:
as §1

In test [4] the test system is RANK MDA-MB231. Briefly: RANK MDA-MB231 mouse experiment (bone metastases, bioluminescence imaging). Type of test: in vivo. Particulars: ~10 and ~50 mg/kg/day PO, 2 weeks of treatment, FIG. 9. An excerpt: FIG. 9 illustrates the results of a RANK MDA-MB231 mouse experiment. […] The primary endpoint was bioluminescence imaging (weekly). The secondary endpoints were serum CTx (bone resorption) and serum P1NP (bone formation).

SMILES strings stand for the structures.

On to `CC#CC(=O)N1CCC[C@H]1c1nc(-c2ccc(C(=O)Nc3ccccn3)cc2)c2c(N)nccn12` [Formula (II), (S)-4-(8-amino-3-(1-(but-2-ynoyl)pyrrolidin-2-yl)imidazo[1,5-a]pyrazin-1-yl)-N-(pyridin-2-yl)benzamide], for which the “CXCR4 surface expression in B-CLL cells compared to predose” value in test [1] (100 mg BID for 3 days, FIG. 3) is reported as “reduced”; in test [1] (200 mg QD for 3 days, FIG. 4), “reduced”. The “BTK phosphorylation, p-Btk(Y223), in B cells” value in test [2] is recorded as “inhibited”. Moreover, in test [3], the “SDF-1/CXCR4 signaling (SDF-1 induced p-Btk) in monocytes” value is on record as “inhibits”. The “Bone metastases (bioluminescence imaging)” value in test [4] is reported as “dose-response reduction”.

For the origin of these results see patent US9937171B2, “Methods of blocking the CXCR-4/SDF-1 signaling pathway with inhibitors of bruton's tyrosine kinase” (Acerta Pharma B.V., priority 2014, dated 2018).
